In brackets after ≈: the same amount, converted by molar mass.

Consider three molecules from ChEMBL document CHEMBL3091428, “Synthesis and initial biological evaluation of substituted 1-phenylamino-2-thio-4,5-dimethyl-1H-imidazole derivatives” (Bioorg Med Chem Lett, 2013).

Data set [1] is described as follows: Cytotoxicity against human Hs578T cells assessed as cell growth after 48 hrs by SRB assay relative to control. It is filed as functional, Hs-578T.
Another data set concerns Nakaseomyces glabratus. Put plainly: Antimicrobial activity against Candida glabrata ATCC 90030 after 24 hrs by broth microdilution method. The class given is functional. The following applies: ATCC 90030, 24 h. (In general: In broth dilution the organism is exposed to a series of concentrations in liquid medium.)
In the next data set the test system is HOP-62. As to the kind of experiment: Cytotoxicity against human HOP62 cells assessed as cell growth after 48 hrs by SRB assay relative to control. It is filed as functional. (Sulforhodamine B stains cellular protein and so reports cell mass.)
The nature of data set [2]: Cytotoxicity against human OVCAR5 cells assessed as cell growth after 48 hrs by SRB assay relative to control. It is filed as functional, OVCAR-5.
For a further data set, the system named is MOLT-4. Put plainly: Cytotoxicity against human MOLT4 cells assessed as cell growth after 48 hrs by SRB assay relative to control. It is filed as functional.
A further data set deals with OVCAR-3. Put plainly: Cytotoxicity against human OVCAR3 cells assessed as cell growth after 48 hrs by SRB assay relative to control. The class given is functional.
For the next data set, the system named is SK-MEL-28. As to the kind of experiment: Cytotoxicity against human SK-MEL-28 cells assessed as cell growth after 48 hrs by SRB assay relative to control. It is filed as functional.
Data set [3] in a line: Cytotoxicity against human UACC257 cells assessed as cell growth after 48 hrs by SRB assay relative to control. The class given is functional, UACC-257.
Data set [4] is described as follows: Toxicity in brine shrimp larvae assessed as mortality after 24 hrs. It is filed as organism-based. The following applies: artemia salina, in vivo.
The subject of data set [5] is Artemia salina. Put plainly: Toxicity in brine shrimp larvae assessed as mortality at 50 ug/ml after 24 hrs. It is filed as organism-based. Conditions: in vivo.
The next data set concerns IGROV-1. Put plainly: Cytotoxicity against human IGROV1 cells assessed as cell growth after 48 hrs by SRB assay relative to control. The class given is functional.
For another data set, the system named is Pichia kudriavzevii. As to the kind of experiment: Antimicrobial activity against Candida krusei ATCC 6258 after 24 hrs by broth microdilution method. The class given is functional. The following applies: ATCC 6258, 24 h.
Data set [6] has as its system Artemia salina. Put plainly: Toxicity in brine shrimp larvae assessed as mortality at 100 ug/ml after 24 hrs. It is filed as organism-based. Conditions: in vivo.
A further data set has as its system NCI-H460. As to the kind of experiment: Cytotoxicity against human NCI-H460 cells assessed as cell growth after 48 hrs by SRB assay relative to control. The class given is functional.
For a further data set, the system named is Pseudomonas aeruginosa. Put plainly: Antimicrobial activity against Pseudomonas aeruginosa ATCC 27853 after 24 hrs by broth microdilution method. The class given is functional. The following applies: ATCC 27853, 24 h.
The next data set has as its system SNB-19. Put plainly: Cytotoxicity against human SNB19 cells assessed as cell growth after 48 hrs by SRB assay relative to control. It is filed as functional.
A further data set has as its system SW-620. Put plainly: Cytotoxicity against human SW620 cells assessed as cell growth after 48 hrs by SRB assay relative to control. It is filed as functional.
Data set [7] can be described thus: Cytotoxicity against human UO31 cells assessed as cell growth after 48 hrs by SRB assay relative to control. It is filed as functional, UO-31.
A further data set concerns A498. As to the kind of experiment: Cytotoxicity against human A498 cells assessed as cell growth after 48 hrs by SRB assay relative to control. The class given is functional.
In a further data set the test system is Candida albicans. As to the kind of experiment: Antimicrobial activity against Candida albicans ATCC 90028 after 24 hrs by broth microdilution method. The following applies: ATCC 90028, 24 h. It is filed as functional.
The subject of another data set is MDA-MB-231. As to the kind of experiment: Cytotoxicity against human MDA-MB-231 cells assessed as cell growth after 48 hrs by SRB assay relative to control. It is filed as functional.
For another data set, the system named is NCI-H522. Put plainly: Cytotoxicity against human NCI-H522 cells assessed as cell growth after 48 hrs by SRB assay relative to control. It is filed as functional.
In another data set the test system is SR. Put plainly: Cytotoxicity against human SR cells assessed as cell growth after 48 hrs by SRB assay relative to control. It is filed as functional.

A word on the MIC: it is the smallest concentration in the dilution series that meets the test's criterion for growth inhibition. One may read the LC50 as the concentration lethal to half of the exposed cells or organisms. As to `Cc1nc(SCC(=O)c2ccccc2)n(Nc2ccccc2)c1C`, the Activity is 108% in data set [1]; 97.72% in the data set with HOP-62; 109.7% in data set [2]; 100.2% with MOLT-4; 109.4% with OVCAR-3; 110.7% in the data set on SK-MEL-28. For the same molecule, the Activity is on record as 97.59% in data set [3]; “Non-toxic” in the data set with Artemia salina [5]; 98.59% in the data set with IGROV-1; “Non-toxic” in the data set with Artemia salina [6]; 104.4% in the data set on NCI-H460; 98.31% with SNB-19. In addition, the Activity in the data set with SW-620 came out at 109.1%; in data set [7], 68.6%; with A498, 91.12%; with MDA-MB-231 it was 98.84%; in the data set with NCI-H522 it was 81.35%; with SR, 82.35%. Also, the MIC is 800 µg/mL (≈ 2370 µM) in the data set on Nakaseomyces glabratus, 400 µg/mL (≈ 1190 µM) against Pichia kudriavzevii, 200 µg/mL (≈ 593 µM) in the data set with Pseudomonas aeruginosa and 400 µg/mL (≈ 1190 µM) with Candida albicans. For the same molecule, the LC50 at 24 h in data set [4] was over 1600 µg/mL.
On to `COc1ccc(C(=O)CSc2nc(C)c(C)n2Nc2ccccc2)cc1`, for which the Activity is recorded as 107.2% in data set [1]; 100.7% with HOP-62; 99.29% in data set [2]; 89.96% in the data set on MOLT-4; 101.3% in the data set on OVCAR-3; 113.1% in the data set on SK-MEL-28. The Activity in [3] is listed as 99.75%; in the data set on IGROV-1, 103.3%; with NCI-H460, 96.54%; with SNB-19, 96.63%; in the data set on SW-620, 105.7%; in data set [7], 69.91%. Also, the Activity with A498 is 90.87%; in the data set on MDA-MB-231, 89.05%; with NCI-H522, 77.18%; with SR, 83.4%. Moreover, the MIC in the data set on Nakaseomyces glabratus was determined as 800 µg/mL (≈ 2180 µM); against Pichia kudriavzevii, 800 µg/mL (≈ 2180 µM); with Pseudomonas aeruginosa, 200 µg/mL (≈ 544 µM); against Candida albicans, 400 µg/mL (≈ 1090 µM).
Consider `Cc1nc(SCC(=O)c2ccc(Cl)cc2)n(Nc2ccccc2)c1C`, for which the Activity in [1] was determined as 96.61%; in the data set on HOP-62 it was 101.2%; in [2], 103.9%; in the data set with MOLT-4, 87.31%; with OVCAR-3 it was 108.6%; in the data set with SK-MEL-28, 108.7%. For the same molecule, the Activity in data set [3] is on record as 97.88%; with IGROV-1, 102.1%; in the data set on NCI-H460, 98.85%; in the data set on SNB-19 it was 89%; in the data set on SW-620 it was 108.9%; in [7] it was 66.15%. The Activity with A498 is recorded as 82.14%; in the data set with MDA-MB-231, 95.48%; in the data set on NCI-H522, 79.92%; with SR, 86.04%. For the same molecule, the MIC in the data set on Nakaseomyces glabratus worked out at 400 µg/mL (≈ 1080 µM); with Pichia kudriavzevii it was 200 µg/mL (≈ 538 µM); against Pseudomonas aeruginosa, 400 µg/mL (≈ 1080 µM); against Candida albicans, 200 µg/mL (≈ 538 µM).
